# Measured values from patent US20090311344A1, “Dosing Regimen” (priority 2008, published 2009).
# “Also recorded” adds a separate entry of the source.
# Experiments:
# [1] = Single dose study in healthy subjects: safety, tolerability, antibodies; type: in vivo, human
# Experimental: See, e.g., U.S. patent application Ser. No. 11/354,065, filed Feb. 14, 2006, the entire contents of which are incorporated herein by reference.
# Single i.v. doses of the TPO mimetic peptide compound up to and including 3 μg/kg were well-tolerated in healthy male subjects, with no apparent drug-related effects on adverse events, or cardiovascular or laboratory safety parameters (excluding platelet counts). Antibodies against the TPO mimetic peptide compound were not apparent in any post dose samples.
# [2] = toxicity / side effects in HT-29 tumor-bearing mice
# Description: Animals were weighed daily for the first five days of the study and then twice weekly.
# Animals were monitored for adverse treatment-related effects by frequent observation and body-weight (BW) measurements (data not shown).
substance,measurement,setting,value
Methoxypolyethyleneglycol20000-propionyl-L-Isoleucyl-L-Glutamyl-Glycyl-L-Prolyl-L-Threonyl-L-Leucyl-L-Arginyl-L-Glutaminyl-L-2-Naphthylalanyl-L-Leucyl-L-Alanyl-L-Alanyl-L-Arginyl-Sarcosyl-Ne-(methoxypolyethyleneglycol20000-propionyl-L-Isoleucyl-L-Glutamyl-Glycyl-L-Prolyl-L-Threonyl-L-Leucyl-L-Arginyl-L-Glutaminyl-L-2-Naphthylalanyl-L-Leucyl-L-Alanyl-L-Alanyl-L-Arginyl-Sarcosyl-)-Lysinamide [TPO mimetic peptide compound],safety and tolerability,"[1]; healthy male subjects, single i.v. doses 0.375 to 3 μg/kg",safe and generally well tolerated
same,antibodies against the TPO mimetic peptide compound,"[1]; healthy subjects, post dose samples",not apparent; also recorded: no evidence of antibody formation
same,large spleens in necropsied animals,[2]; Group 3,⅖
same,mean BW losses,[2]; monotherapy (Group 3),no mean BW losses
same,tolerability,"[2]; monotherapy (Group 3), 0.2 mg/kg i.v. Days 2, 13",well tolerated
